# In PubChem BioAssay (NCI):
# Values joined by “and” are separate entries in the source; they are usually repeats but may differ in a detail not shown here. Identical values can stand only once.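 Exposure lasted 48 hours, with cells grown in 96-well plates and compounds tested at five concentrations. GI50 marks 50% less growth. At the TGI there is no net growth.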
# How the values were obtained:
# Assay in all cases: inhibition of tumour cell growth, NCI panel, 48 h
# A498 renal = system: A498 renal
# CAKI-1 renal = system: CAKI-1 renal
# DU-145 prostate = system: DU-145 prostate
# HCT-116 colon = system: HCT-116 colon
# HOP-92 NSCLC = system: HOP-92 NSCLC
# IGROV1 ovarian = system: IGROV1 ovarian
# SF-539 CNS = system: SF-539 CNS
# SK-MEL-2 melanoma = system: SK-MEL-2 melanoma
# T-47D breast = system: T-47D breast
# U251 CNS = system: U251 CNS
Structure (SMILES),GI50 (A498 renal),TGI (A498 renal),GI50 (CAKI-1 renal),TGI (CAKI-1 renal),GI50 (DU-145 prostate),TGI (DU-145 prostate),GI50 (HCT-116 colon),TGI (HCT-116 colon),GI50 (HOP-92 NSCLC),TGI (HOP-92 NSCLC),GI50 (IGROV1 ovarian),TGI (IGROV1 ovarian),GI50 (SF-539 CNS),TGI (SF-539 CNS),GI50 (SK-MEL-2 melanoma),TGI (SK-MEL-2 melanoma),GI50 (T-47D breast),TGI (T-47D breast),GI50 (U251 CNS),TGI (U251 CNS)
C=C1C(=O)O[C@H]2[C@H]1CC/C(Cn1cc(CNC(=O)Cc3cn(C(=O)c4ccc(Cl)cc4)c4ccc(OC)cc34)nn1)=C\CC[C@@]1(C)O[C@@H]21,2.51 µM,8.24 µM,1.49 µM,2.89 µM,1.75 µM,3.35 µM,1.19 µM,2.55 µM,1.21 µM,2.65 µM,1.71 µM,3.32 µM,1.57 µM,2.96 µM,2.01 µM,4.18 µM,1.73 µM,5.05 µM,1.89 µM,3.55 µM
Cc1ccc(CNc2c3ccccc3nc3ccccc23)cc1,1.21 µM,2.92 µM,1.53 µM,4.57 µM,3.02 µM,11.4 µM,0.88 µM,6.6 µM,1.36 µM,5.05 µM,1.88 µM,5.56 µM,1.57 µM,3.01 µM,2.06 µM,4.47 µM,1.87 µM,4.83 µM,2.65 µM,10.4 µM
C[C@@H]1C[C@@H](O)[C@]2(O)O[C@@H]3C[C@@]4(C=O)[C@@H](CC[C@@H]5[C@@H]4CC[C@]4(C)[C@@H](C6=CC(=O)OC6)CC[C@]54O)C[C@H]3O[C@@H]2O1,0.00998 µM,0.115 µM and 0.0399 µM,0.0432 µM,0.0486 µM and 0.36 µM,,0.111 µM,0.0197 µM,0.0532 µM and 0.122 µM,0.135 µM,0.234 µM and 0.683 µM,0.033 µM and 0.00727 µM,0.0474 µM and 0.175 µM and 0.0516 µM,0.015 µM and 0.005 µM,0.0146 µM and 0.037 µM and 0.0144 µM,0.052 µM and 0.0898 µM,,,0.89 µM,0.0449 µM and 0.0153 µM,0.0725 µM and 0.158 µM and 0.0697 µM
O=C(CCCCCCSc1nc(-c2ccccc2)cc(-c2ccc(Cl)cc2)n1)NO,1.4 µM,4.09 µM,1.51 µM,6.89 µM,2.25 µM,10.6 µM,1.14 µM,12.4 µM,1.75 µM,5.44 µM,1.24 µM,6.5 µM,1.84 µM,5.31 µM,3.65 µM,16.2 µM,1.62 µM,4.98 µM,1.59 µM,4.08 µM
COc1ccc(C(=O)/C(Br)=C/C(=O)O)cc1,58.3 µM,192 µM and 77.3 µM,,148 µM and 154 µM,65.3 µM,128 µM and 202 µM,25.9 µM and 25.4 µM,81.3 µM and 65.8 µM,,93.7 µM and 93.6 µM,121 µM and 144 µM,321 µM and 461 µM,9.18 µM and 27.3 µM,90.7 µM and 87.3 µM,,29.3 µM and 32 µM,15.7 µM,149 µM and 260 µM,,46.5 µM and 52.1 µM
O=C(Nc1ccc(N2CCNCC2)cc1)c1[nH]ncc1Nc1ncnc2sc3c(c12)CCC3,0.188 µM,1.58 µM,0.148 µM,1.6 µM,0.302 µM,1.19 µM,0.109 µM,0.297 µM,0.0302 µM,1.91 µM,0.125 µM,1.38 µM,0.399 µM,1.81 µM,1.27 µM,3.01 µM,0.852 µM,3.53 µM,0.108 µM,0.244 µM
C=CCn1c2c(c3ccccc3c1=O)C(=O)c1ccccc1-2,,> 100 µM,,> 100 µM,,> 100 µM,,> 100 µM,,> 100 µM,,> 100 µM,,> 100 µM,,> 100 µM,,> 100 µM,,> 100 µM
COc1cc(/C(C#N)=C/c2ccc3c(c2OC)OCO3)cc2c1OCO2,0.051 µM,0.785 µM,0.0933 µM,> 100 µM,0.122 µM,3.63 µM,0.0492 µM,> 35.7 µM,0.211 µM,15.7 µM,0.165 µM,42.3 µM,0.0964 µM,2.29 µM,0.0461 µM,6.46 µM,6.18 µM,> 83.6 µM,0.11 µM,14 µM
Cc1ncc(CN=Cc2ccc(Cl)cc2)c(N)n1,,> 100 µM,,> 100 µM,,> 100 µM,,> 100 µM,,> 100 µM,,> 100 µM,,> 100 µM,,> 100 µM,,> 100 µM,,> 100 µM
O=c1oc2cc(OS(=O)(=O)c3ccc(F)cc3)ccc2c2c1CCCCC2,> 100 µM,> 100 µM,> 100 µM,> 100 µM,> 100 µM,> 100 µM,6.24 µM,> 100 µM,4.05 µM,95.1 µM,> 100 µM,> 100 µM,> 100 µM,> 100 µM,> 100 µM,> 100 µM,1.86 µM,> 100 µM,> 100 µM,> 100 µM
CN(C)c1cccc2c(S(=O)(=O)N[C@H]3CC[C@H]4[C@@H]5CCc6cc(O)ccc6[C@H]5CC[C@]34C)cccc12,1.75 µM,4 µM,2.05 µM,7.43 µM,2.71 µM,8.51 µM,2.27 µM,5.85 µM,1.67 µM,7.64 µM,3.45 µM,16.2 µM,1.88 µM,4.14 µM,2.37 µM,5.48 µM,3.47 µM,30.1 µM,2.94 µM,10.4 µM
COc1ccc(Cl)cc1Nc1nc(C(F)(F)F)ccc1C(=O)N/N=C/c1c(Cl)cccc1Cl,12.3 µM,> 100 µM,9.74 µM,> 100 µM,5.91 µM,> 100 µM,3.3 µM,> 100 µM,3.46 µM,38.4 µM,,,17.9 µM,> 100 µM,5.62 µM,> 100 µM,4.41 µM,> 100 µM,4.97 µM,> 100 µM
N=C1C(c2nc(-c3ccc(Br)cc3)cs2)=C(O)CN1Cc1cccnc1,1.9 µM,5.23 µM,35 µM,> 100 µM,17.4 µM,63.1 µM,1.75 µM,24 µM,22.2 µM,84.1 µM,,,15.5 µM,84.8 µM,11.2 µM,80.5 µM,4.89 µM,56.1 µM,22.1 µM,> 100 µM
